Laboratory results as given in PMC6315005, “5F-Cumyl-PINACA in ‘e-liquids’ for electronic cigarettes: comprehensive characterization of a new type of synthetic cannabinoid in a trendy product including investigations on the in vitro and in vivo phase I metabolism of 5F-Cumyl-PINACA and its non-fluorinated analog Cumyl-PINACA” (Forensic Toxicology, 2018).
“Also recorded” adds a separate entry of the source.

Key:
CB1 receptors = test system: CB1 receptors; design: method as in PMID 28792725; conditions: mouse AtT-20 neuroblastoma cells, membrane potential; cited from earlier work
[1] = Authentic urine sample, phase I metabolites of 5F-Cumyl-PINACA (LC-MS/MS); type: in vivo, human
Procedure: The LC–MS/MS system used for the analysis of the urine and the pHLM assay samples consisted of a Nexera X2 UHPLC (Shimadzu) coupled to a QTRAP™ 5500 triple quadrupole linear ion trap instrument (SCIEX) equipped with the TurboIonSpray® probe. […] The total flow rate was 0.4 mL/min. The autosampler and the column oven temperatures were set to 10 and 40 °C, respectively.
The MRM ion transitions of the parent compounds were optimized carefully in positive ionization mode (see Supplementary Tables S1 and S2). Enhanced product ion (EPI) scan experiments were performed using hypothetical masses of anticipated phase I metabolites, and the obtained spectra were compared to the EPI spectrum of the respective parent compound. In order to detect unexpected metabolites not covered by the EPI scan approach, precursor ion scan experiments for the characteristic fragment ion at m/z 145 and for the m/z of its modified analogs 161 (monohydroxylation), 177 (dihydroxylation) and 179 (dihydrodiol) were conducted. The relative abundances of the characterized metabolites in the urine samples obtained during the self-administration study were compared using an MRM method comprising the most abundant ion transitions of each metabolite (see Supplementary Fig. S1 and Table S3).
The analysis of in vivo metabolism of 5F-Cumyl-PINACA in an authentic urine sample was conducted in accordance with the client’s inquest.
In order to cleave conjugates, 0.5 mL of an urine sample was incubated at 45 °C for 1 h after addition of 0.5 mL phosphate buffer (pH 6) and 30 µL β-glucuronidase. In a next step, 1.5 mL acetonitrile and 0.5 mL ammonium formate ([…]) were added. After shaking and centrifugation, 1 mL of the acetonitrile phase was transferred into a glass vial and evaporated to dryness under a gentle nitrogen stream at 40 °C. The residue was reconstituted in 200 µL mobile phase A/B (50:50, v/v) directly before LC–MS/MS analysis. Blank urine samples were prepared serving as negative controls.

CB2 receptor = test system: CB2 receptor; design: method as in PMID 29367862; conditions: [35S]GTPγS binding; cited from earlier work
CB1 receptor = test system: CB1 receptor; design: method as in PMID 29367862; conditions: [35S]GTPγS binding; cited from earlier work
CB2 receptors = test system: CB2 receptors; design: method as in PMID 28792725; conditions: mouse AtT-20 neuroblastoma cells, membrane potential; cited from earlier work
CB1 = target: T1, CB1 (Homo sapiens, UniProt P21554); test: cAMP biosensor assay with CB1 as target (DiscoveRx); type: cell-based
T1 construct: purchased DiscoveRx (Fremont, CA, USA)
Procedure: Each compound was tested in duplicates; to induce response, 20 µM forskolin was used.

[2] = Self-administration study, phase I metabolites of Cumyl-PINACA in urine (LC-MS/MS); type: in vivo, human; conditions: 0.6 mg Cumyl-PINACA oral
[3] = Self-administration study, serum concentrations of Cumyl-PINACA (LC-MS/MS); type: in vivo, human; conditions: 0.6 mg oral, one volunteer
From the text: For analysis of the serum samples, a routinely used LC–MS/MS screening method, currently covering 94 compounds with at least two ion transitions for each analyte and one ion transition for each internal standard in positive scheduled multiple reaction monitoring (+sMRM) was applied. Briefly, a QTRAP™ 4000 triple quadrupole linear ion trap instrument (Sciex, Darmstadt, Germany) equipped with a TurbolonSpray® interface and coupled to a Shimadzu Prominence HPLC system consisting of two LC-20 AD SP isocratic pumps, SIL 20 AC autosampler, CTO-20A controller (Shimadzu, Duisburg, Germany) and Analyst® software version 1.6.2 were used (Sciex). […] The total flow rate was 0.5 mL/min. The autosampler and the column oven temperatures were set to 10 and 40 °C, respectively. The monitored ion transitions used for Cumyl-PINACA were m/z 350→215 and 350→232.
To investigate the in vivo phase I metabolism of Cumyl-PINACA, one of the authors (75 kg person) ingested 0.6 mg Cumyl-PINACA orally. In addition to blank samples taken prior to ingestion, serum and urine samples were collected repeatedly over periods of 17 and 31 h after ingestion, respectively. All samples were stored at − 20 °C until analysis. In Germany, approval by an ethics committee is not required for scientific self-experiments.
A 1-mL aliquot of a serum sample was spiked with 10 µL of an internal standard solution mixture (25 ng/mL each, ADBICA-d9, AKB48-d9, JWH-007-d9, JWH-015-d7, JWH-018-d11, JWH-073-d9, JWH-081-d9, JWH-122-d9, JWH-200-d5, JWH-210-d9, JWH-250-d5, JWH-398-d9, MAM-2201-d5, PB-22-d9, RCS-4-d9, UR-144-d5, XLR-11-d5). A 0.5-mL volume carbonate buffer (pH 10) and 1.5 mL of extraction mixture 1 (n-hexane/ ethyl acetate, 99:1, v/v) were added. After gentle mixing for 5 min, the sample was centrifuged and 1 mL of the supernatant was transferred to an HPLC vial. Subsequently, 1.5 mL of extraction mixture 2 (n-hexane/ethyl acetate, 80:20, v/v) was added to the residue, and the mixing and centrifugation steps were repeated. A 1-mL volume of the supernatant was added to the same HPLC vial, and after evaporation under a gentle stream of nitrogen at 40 °C and reconstitution in 100 µL of mobile phase (A/B, 80:20, v/v), the sample was analyzed using LC–MS/MS.

T1 sequence (P21554 whole entry): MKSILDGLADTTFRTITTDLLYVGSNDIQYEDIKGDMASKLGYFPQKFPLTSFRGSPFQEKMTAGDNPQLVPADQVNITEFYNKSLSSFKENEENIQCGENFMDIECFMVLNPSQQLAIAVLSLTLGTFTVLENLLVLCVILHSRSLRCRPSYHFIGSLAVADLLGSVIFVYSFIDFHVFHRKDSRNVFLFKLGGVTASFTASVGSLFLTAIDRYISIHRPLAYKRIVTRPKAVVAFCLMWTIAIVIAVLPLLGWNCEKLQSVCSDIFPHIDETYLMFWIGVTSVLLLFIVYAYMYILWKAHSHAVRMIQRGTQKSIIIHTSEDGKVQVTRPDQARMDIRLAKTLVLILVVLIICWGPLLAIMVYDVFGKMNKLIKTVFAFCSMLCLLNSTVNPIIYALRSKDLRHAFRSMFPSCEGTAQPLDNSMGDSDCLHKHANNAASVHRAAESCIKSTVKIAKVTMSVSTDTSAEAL

In the case of CC(C)(NC(=O)c1nn(CCCCCF)c2ccccc12)c1ccccc1 [5F-Cumyl-PINACA, 1-(5-fluoropentyl)-N-(2-phenylpropan-2-yl)-1H-indazole-3-carboxamide], the “potency of CB1 receptor activation compared to CP-55,940” value (CB1 receptors) is listed as “greater potency than CP-55,940”, the “detection of parent compound in urine” value [1] is listed as “not detected” and the “CB2 activity compared to CP-55,940” value (CB2 receptor) is listed as “less activities as compared to CP-55,940”. For the same compound, the “CB1 activity compared to CP-55,940” value (CB1 receptor) was “less activities as compared to CP-55,940” and the “potency of CB2 receptor activation compared to CP-55,940” value (CB2 receptors) was “greater potency than CP-55,940”.

For CCCCCn1nc(C(=O)NC(C)(C)c2ccccc2)c2ccccc21 [Cumyl-PINACA, 1-pentyl-N-(2-phenylpropan-2-yl)-1H-indazole-3-carboxamide], the EC50 (CB1) was 0.06 nM, the “relative potency among the tested substances” value (CB1) was “most potent SC among the tested compounds; also recorded: most potent substance in this assay” and the Curve top (CB1; agonist format, 20 µM forskolin) was 93.7. The Emax (CB1; control ligand CP-55,940, read-out: Maximum response (compared to CP-55,940)) was 92.9%, the “potency of CB1 receptor activation compared to CP-55,940” value (CB1 receptors) was “greater potency than CP-55,940” and the “detection of parent compound in urine” value [2] was “not detected in urine”. The “CB2 activity compared to CP-55,940” value (CB2 receptor) was “less activities as compared to CP-55,940”, the “CB1 activity compared to CP-55,940” value (CB1 receptor) was “less activities as compared to CP-55,940” and the “potency of CB2 receptor activation compared to CP-55,940” value (CB2 receptors) was “greater potency than CP-55,940”. The drug-related symptoms [3] was “did not experience any drug-related symptoms”, the “maximum concentration measured in serum” value [3] was 0.1 ng/mL and the “period of detection in serum” value [3] was “about 17 h”. The Tmax ([3]; human, serum, read-out: time of maximum serum concentration after ingestion) was 6 h.
